Measured values reported in patent publication US20220125841A1, “SODIUM F[…] A REVERSAL AGENT FOR AN ANTI-F[…] T CELLS AND FLUORESCEIN-PHOSPHOLIPID-ETHERS OR PROFLUORESCEIN-PHOSPHOLIPID-ETHERS” (Seattle Children's Hospital (dba Seattle Children'a …, priority 2019, published 2022).

Key:
[1] = test system: antiFL(FITC-E2) CAR T cells; assay: Chromium release assay and cytokine release assay, antiFL(FITC-E2) CAR T cells with FL-PLE-loaded K562 target cells; format: cell-based; settings: 50 μM NaFL; K562 target cells with 5 μM FL-PLE
Procedure: FIG. 1B depicts a chromium release assay for effector T cells (CD8+ Mock or CD8+ antiFL(FITC-E2) CAR(Lg) T cells) mixed at various ratios with target cells (effector:target, E:T). The target cells are K562 control, K562 OKT3+, and K562 with 5 μM FL-PLE. One CD8+ antiFL(FITC-E2) population was exposed to 50 μM NaFL.
FIG. 1C depicts a cytokine release assay for helper cells (CD4+ Mock or CD4+ antiFL(FITC-E2) CAR(Lg) T cells) and effector T cells (CD8+ Mock or CD8+ antiFL(FITC-E2) CAR(Lg) T cells) mixed with target cells. The target cells are K562 control, K562 OKT3+, and K562 with 5 μM FL-PLE. One CD4+ and CD8+ antiFL(FITC-E2) population was exposed to 50 μM NaFL.
K562 (leukemia) cells were incubated with FL-PLE overnight. Cell integration of FL-PLE was analyzed by flow cytometry (FIG. 1A). There was a clear shift from the control K562 parental with the K562 parental incubated with 5 μM FL-PLE. This slight shift corresponded to a difference in the amount of FL exposed on the surface of the cell for CAR T cell recognition. These cells were used in a chromium release assay (FIG. 1B) and a cytokine release assay (FIG. 1C) to test whether the activation of CD8+ and CD4+ antiFL(FITC-E2) CAR T cells through FL-PLE integrated into K562 cells could be stopped in the presence of sodium fluorescein (NaFL). […]

[2] = test system: antiFL(FITC-E2) CAR T cells; assay: MDA-MB-231 xenograft mouse model: monitoring of cytokine release syndrome (CRS) and cytotoxicity; format: in vivo, mice
From the text: FIG. 2B depicts levels of cytokine release syndrome (CRS) and cytotoxicity in an MDA-MB-231 adenocarcinoma tumor xenograft mouse model over time. FIG. 2B (lower panel) is an enlargement of an area of FIG. 2B (upper panel).
After an adenocarcinoma (MDA-MB-231) tumor was established in 2 groups of mice by subcutaneous injection (2 tumors per mouse in opposite flanks), the mice received an intravenous injection of antiFL(FITC-E2) CART cells on day 6. The control group (no drug) only received the antiFL(FITC-E2) CAR T cells and the tumor progressed as normal. […] The mice were monitored for cytokine release syndrome (CRS) and cytotoxicity on a scale ranging from 1 (healthy) to 5 (dead) (FIG. 2B). On day 17, the intratumoral dose of FL-PLE was increased to 2 μg per tumor. On day 18, the mice had levels of CRS/toxicity between 3 and 4 at which point they received a dose of 0.56 mg of NaFL via an intravenous injection. […] After this, all doses of FL-PLE were administered at 1 μg per tumor.

[3] = test system: antiFL(Mut2) CAR T cells; assay: Cytokine release assay with dose titration of NaFL (Example 3); format: cell-based
Procedure: FIG. 3D depicts a cytokine release assay measuring IL-2 using the effector cells generated in FIG. 3A-B, target cells tested in FIG. 3C, and a dose titration of NaFL (0, 1, 5, or 10 μM).
FIG. 3E depicts a cytokine release assay measuring IFN-γ using the effector cells generated in FIG. 3A-B, target cells tested in FIG. 3C, and a dose titration of NaFL (0, 1, 5, or 10 μM).
FIG. 3F depicts a cytokine release assay measuring TNF-α using the effector cells generated in FIG. 3A-B, target cells tested in FIG. 3C, and a dose titration of NaFL (0, 1, 5, or 10 μM).
CD4+ and CD8+ T cells from peripheral blood mononuclear cell preparations from two donors were lentivirally transduced to express long CAR cassettes comprising the antiFL(Mut2) CAR. The CAR cassette also contains the gene for a double mutant dihydrofolate reductase that allows for methotrexate positive selection to enrich for transduced CAR-expressing cells as well as the gene for the truncated CD19 (CD19t) surface marker that denotes CAR positivity. The selected cells are then subjected to a standard rapid expansion protocol using irradiated TM-LCL and PBMC feeder cells. After 14 days of expansion, cells were stained with anti-CD4, anti-CD8, and anti-CD19 antibodies as well as a live-dead stain to characterize surface phenotypes by flow cytometry. Flow plots for the CD4 and CD8 populations (FIG. 3A) and CAR positivity (FIG. 3B) are shown for mock and antiFL(Mut2) CAR T cells for both donors. These are the effector cells to be used in subsequent experiments.
A cytokine release assay was set up to examine how a dose titration of NaFL (0, 1, 5, and 10 μM) affects the activation of antiFL CAR T cells. The CAR T cells are the antiFL(Mut2) CAR T cells generated in this example. Target cells were incubated with FL-PLE/NaFL for 24 hours or overnight. The media supernatant from target cell cultures were harvested and constituent cytokines were measured (e.g. with a Bio-Plex Human Cytokine Screening Panel). The cytokines IL-2 (FIG. 3D), IFN-γ (FIG. 3E), and TNF-α (FIG. 3F) were measured.

[4] = test system: antiFL(Mut2) CAR T cells; assay: In vivo intravenous use of NaFL to reverse cytokine toxicity by antiFL CAR T cells (Example 4); parameters: species or system mice
Procedure: Group A—control (5 mice): MDA-MB-231 tumor+antiFL(Mut2) CAR T cells.
Group B—FL-PLE without NaFL (5 mice): MDA-MB-231 tumor+antiFL(Mut2) CAR T cells+1 mg IV FL-PLE.
Group C—FL-PLE and NaFL (5 mice): MDA-MB-231 tumor+antiFL(Mut2) CAR T cells+1 mg IV FL-PLE+0.5 mg IV NaFL (as needed).
Group D—No tumor control (3 mice): antiFL(Mut2) CAR T cells+1 mg IV FL-PLE+0.5 mg IV NaFL (as needed).
Mice receiving FL-PLE (Groups B, C, and D) were administered FL-PLE IV first. AntiFL(Mut2) CAR T cells were subsequently administered in all mice 2 days following FL-PLE administration. […] Reduction of cytokine toxicity symptoms in mice of Groups C and D was observed within 15 minutes after administration of NaFL.

O=C([O-])c1ccccc1-c1c2ccc(=O)cc-2oc2cc([O-])ccc12.[Na+].[Na+] [NaFL, sodium fluorescein]
Effect of NaFL on recognition and activation of antiFL(FITC-E2) CAR T cells [1]: able to stop the recognition and activation
Time for cytotoxicity level to return to roughly baseline levels after NaFL ([2]; 0.56 mg NaFL intravenous injection on day 18): ≤ 12 h
Cytotoxicity level after NaFL ([2]; 0.56 mg NaFL intravenous injection on day 18 at CRS/toxicity level 3 to 4): Within minutes, the cytotoxicity level had dropped
Amount of activation of antiFL(Mut2) CAR T cells (IL-2, IFN-γ, TNF-α) versus amount of NaFL ([3]; NaFL 0, 1, 5, and 10 μM, all three cytokines, both donor T cells): decreased by the amount of NaFL present in the solution in a linear fashion
Effect of NaFL on IL-2 release by antiFL(Mut2) CAR T cells ([3]; NaFL 0, 1, 5, or 10 μM, FIG. 3D): dose dependent
Effect of NaFL on IFN-γ release by antiFL(Mut2) CAR T cells ([3]; NaFL 0, 1, 5, or 10 μM, FIG. 3E): dose dependent
Effect of NaFL on TNF-α release by antiFL(Mut2) CAR T cells ([3]; NaFL 0, 1, 5, or 10 μM, FIG. 3F): dose dependent
Tolerability in vivo ([4]; 0.5 mg IV NaFL, mice): well tolerated
Time to reduction of cytokine toxicity symptoms after administration of NaFL ([4]; Groups C and D, 0.5 mg IV NaFL): ≤ 15 min
Cytokine levels after NaFL ([4]; Groups C and D, 2 days following first administration of NaFL, optionally with additional IV injections): comparable to baseline
